Measured values as given in US11072634B2, “Inhibitors of transglutaminases” (Zedira GmbH, priority 2016, dated 2021).

Assays:
[1] = tested on: Htt-exon1-97Q transfected N2a-cells; test: ELISA of huntingtin and isopeptide bonds in SDS-soluble and formic acid soluble cell extracts; format: cell-based, mouse; conditions: N2a Htt-exon1-97Q, 150 or 300 μM, both extracts
Procedure: A) Detection of huntingtin (htt) in an ELISA-Assay. Microtiter plate wells were coated with SDS-soluble and formic acid solubilized extracts of Htt-exon1-97Q transfected N2a-cells grown in the presence of 150 and 300 μM TG2-inhibitor E22. Anti-Htt-antibody 1C2 (1:250, Millipore, MAB1574) was used as detection antibody, followed by a conventional ELISA-protocol.
B) Detection of isopeptide bonds in an ELISA-Assay. Microtiter plate wells were coated with SDS-soluble and formic acid solubilized extracts of Htt-exon1-97Q transfected N2a-cells grown in the presence of 150 and 300 μM TG2-inhibitor E22. Antibody A023 (1:200, Zedira) recognizing N^ε-(γ-L-glutamyl)-L-lysine-isopeptide was used as detection antibody, followed by a conventional ELISA-protocol. […]
SDS-soluble and formic acid soluble extracts were used subsequently for coating of 96-well micro-titer-plates. […] Extinction was measured at 450 nm in a plate reader device.
In order to analyze the effect of E22 on huntingtin aggregation and cross-linking, Htt-exon1-97Q transfected N2a-cells were grown in presence of 150 or 300 μM TG2-blacker E22. SDS-soluble and formic acid soluble extracts were generated and huntingtin and cross-links (isopeptide bonds) were determined in an ELISA-format as described above.

BEAS-2B cells = test: Extracellular matrix protein deposition of LPS-stimulated BEAS-2B cells; format: cell-based, human; conditions: 0-200 μM
Procedure: B) Extracellular matrix protein deposition of homogenates from BEAS-2B-cell grown in the presence of 0-200 μM E22 and stimulated with LPS measured by the DC-protein-assay (BioRad, #5000111).
Extracellular matrix deposition is a hallmark in pulmonary fibrosis. The BEAS-2B cell line is derived from normal human bronchial epithelium.
BEAS-2B cells were grown at 37° C. and 5% CO2 in 25 mM HEPES-buffered M199-medium (Merck, Darmstadt) containing 10% FBS, […], 2 mM glutamine, 100 U/ml penicillin (supplemented with […] apotransferrin, 20 ng/ml human epidermal growth factor (EGF), […] insulin, and 0.361 mg/ml hydrocortisone). For the induction of airway fibrosis by epithelial-to-mesenchymal transition (EMT), cells were seeded at 80% confluence on six-well plates. After one day cultivation 4 μg/mL LPS as well as 0 μM, 100 μM or 200 μM E22 were added and then incubated for further 72 h.

[2] = tested on: Human hepatic stellate cell line LX-2; test: Extracellular matrix protein deposition of LX-2 cells; format: cell-based; conditions: LX-2, 100 μM and 200 μM, 12 days
Procedure: B) Extracellular matrix protein deposition of homogenates from LX-2-cells grown in standard plastic 6-well plates in the presence of 0-200 μM E22 measured by the DC-protein-assay (BioRad, #5000111).
Human hepatic stellate cell line LX-2 was cultured on standard plastic 6 well plates in Dulbecco's Modified Eagle's Medium containing 100 μg/mL streptomycin, 100 units/ml penicillin, 2 mM glutamine, and 10% (v/v) fetal calf serum. E22 was added to a concentration of 0 μM, 100 μM and 200 μM. Cells were grown at 37° C. and 5% CO2 humidified atmosphere. Medium was exchanged every two days.

CCCCCNC(=O)C(=O)CC[C@H](NC(=O)[C@@H]1CCCN1C(C)=O)C(=O)Nc1cccn(CC(=O)NCC(CC)CC)c1=O [Compound E22, (S)-2-((S)-1-acetylpyrrolidine-2-carboxamido)-N1-(1-(2-(2-ethylbutylamino)-2-oxoethyl)-2-oxo-1,2-dihydropyridin-3-yl)-5-oxo-N6-pentylhexanediamide]
protein cross-linking (isopeptide bonds) [1]: reduces protein cross-linking in a dose dependent manner
deposition of ECM-proteins (BEAS-2B cells): significantly reduced, also in a dose dependent manner
extracellular matrix deposition, of control [2]: about 30%
